Reference: patent publication US8946266B2, “Substituted triazole and imidazole derivatives as gamma secretase modulators” (Janssen Pharmaceuticals, Inc., priority 2009, dated 2015)
pIC50: −log10 of the molar value. Read-outs that look alike come from different tables or passages of the source.

How the values were obtained:
[1] = tested on: Aβ42; assay: γ-secretase-modulating activity, Method 2: Aβ42 Alphalisa in supernatant of SKNBE2 cells carrying APP 695-wild type (Table 3b); assay type: cell-based; details: overnight
How it was run: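 SKNBE2 cells expressing wild-type APP695 were incubated overnight at 37° C. with test compound. Secreted Aβ42 was then measured by AlphaLISA, using a C-terminal Aβ42 antibody paired with an N-terminal Aβ antibody. IC50 came from a 4-parameter fit of percent of compound-free control.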

[2] = tested on: Aβ42; assay: In vivo efficacy, Method 2: brain soluble Aβ42 lowering 4 h after a single oral dose, ELISA (Table 4b); design: species or system mouse; details: dose 30 mg/kg oral dosing
Text: (§1) To determine whether acute administration of an Aβ42 lowering agent would reduce Aβ42 levels in vivo, non-transgenic rodents, e.g. mice or rats were used. Animals treated with the Aβ42 lowering agent were examined and compared to those untreated or treated with vehicle and brain levels of soluble Aβ42 and total Aβ were quantitated by standard techniques, for example, using ELISA. Treatment periods varied from hours (h) to days and were adjusted based on the results of the Aβ42 lowering once a time course of onset of effect could be established.
(§2) A typical protocol for measuring Aβ42 lowering in vivo is shown but it is only one of many variations that could be used to optimize the levels of detectable Aβ. For example, Aβ42 lowering compounds were formulated in 20% of Captisol® (a sulfobutyl ether of β-cyclodextrin) in water or 20% hydroxypropyl β cyclodextrin. The Aβ42 lowering agents were administered as a single oral dose or by any acceptable route of administration to overnight fasted animals. After 4 h, the animals were sacrificed and Aβ42 levels were analysed.
(§3) Blood was collected by decapitation and exsanguinations in EDTA-treated collection tubes. Blood was centrifuged at 1900 g for 10 minutes (min) at 4° C. and the plasma recovered and flash frozen for later analysis. The brain was removed from the cranium and hindbrain. The cerebellum was removed and the left and right hemisphere were separated. The left hemisphere was stored at −18° C. for quantitative analysis of test compound levels. The right hemisphere was rinsed with phosphate-buffered saline (PBS) buffer and immediately frozen on dry ice and stored at −80° C. until homogenization for biochemical assays.
(§4) Mouse brains from non-transgenic animals were resuspended in 8 volumes of 0.4% DEA (diethylamine)/50 mM NaCl containing protease inhibitors (Roche-11873580001 or 04693159001) per gram of tissue, e.g. for 0.158 g brain, add 1.264 ml of 0.4% DEA. All samples were homogenized in the FastPrep-24 system (MP Biomedicals) using lysing matrix D (MPBio #6913-100) at 6 m/s for 20 seconds. Homogenates were centrifuged at 221.300×g for 50 min. The resulting high speed supernatants were then transferred to fresh eppendorf tubes. Nine parts of supernatant were neutralized with 1 part 0.5 M Tris-HCl pH 6.8 and used to quantify Aβtotal and Aβ42.
(§5) To quantify the amount of Aβtotal and Aβ42 in the soluble fraction of the brain homogenates, Enzyme-Linked-Immunosorbent-Assays were used. Briefly, the standards (a dilution of synthetic Aβ1-40 and Aβ1-42, Bachem) were prepared in 1.5 ml Eppendorf tube in Ultraculture, with final concentrations ranging from 10000 to 0.3 pg/ml. The samples and standards were co-incubated with HRPO-labelled N-terminal antibody for Aβ42 detection and with the biotinylated mid-domain antibody 4G8 for Aβtotal detection. 50 μl of conjugate/sample or conjugate/standards mixtures were then added to the antibody-coated plate (the capture antibodies selectively recognize the C-terminal end of Aβ42, antibody JRF/cAβ42/26, for Aβ42 detection and the N-terminus of Aβ, antibody JRF/rAβ/2, for Aβtotal detection). The plate was allowed to incubate overnight at 4° C. in order to allow formation of the antibody-amyloid complex. Following this incubation and subsequent wash steps the ELISA for Aβ42 quantification was finished by addition of Quanta Blu fluorogenic peroxidase substrate according to the manufacturer's instructions (Pierce Corp., Rockford, Ill.). A reading was performed after 10 to 15 min (excitation 320/emission 420).
In this model at least 20% Aβ42 lowering compared to untreated animals would be advantageous.
(§6) The results are shown in Table 4b (dose 30 mg/kg oral dosing): […]

[3] = tested on: Aβtotal; assay: In vivo efficacy, Method 2: brain soluble Aβtotal lowering 4 h after a single oral dose, ELISA (Table 4b); design: species or system mouse; details: dose 30 mg/kg oral dosing
Text: as §1, §2, §3, §4, §5
For Aβtotal detection, a Streptavidine-Peroxidase-Conjugate was added, followed 60 min later by an additional wash step and addition of Quanta Blu fluorogenic peroxidase substrate according to the manufacturer's instructions (Pierce Corp., Rockford, Ill.). A reading was performed after 10 to 15 min (excitation 320 nm/emission 420 nm).
as §6

[4] = tested on: Aβtotal; assay: γ-secretase-modulating activity, Method 2: Aβtotal Alphalisa in supernatant of SKNBE2 cells carrying APP 695-wild type (Table 3b); assay type: cell-based; details: overnight, read-out: IC50 Aβtot
How it was run: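 SKNBE2 cells expressing wild-type APP 695 were incubated overnight at 37 °C, 5% CO2 with test compound at a range of concentrations. Aβtotal in supernatant was measured by AlphaLISA sandwich (N-terminal JRF/AβN/25 acceptor, biotinylated mid-region 4G8 donor); IC50 from 4-parameter fit of percent control versus log concentration.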

Row | pIC50 [1] | pIC50 [4] | pIC50 ([1]; Homo sapiens) | pIC50 ([4]; Homo sapiens) | Compound | Aβ42 (% Ctrl) _Mean [2] [% Ctrl] | Aβtotal (% Ctrl) _Mean [3] [% Ctrl]
1 | 7.44 | < 4.82 |  |  | Cc1cn(-c2ccc(-c3nc(Nc4cc(C(F)(F)F)ccc4F)n(C)n3)cc2C#N)cn1 [Compound 322] | −5 | −4
2 | 7.55 | < 5.00 |  |  | COc1cc(-c2nc3n(n2)CCOC3c2cc(OC(F)(F)F)ccc2F)ccc1-n1cnc(C)c1 (stereo not shown) [Compound 128] | 47 | 24
3 | 7.15 | < 5.00 |  |  | COc1nc(-c2nc(Nc3cccc(F)c3Cl)n(C)n2)ccc1-n1cnc(C)c1 [Compound 302] | 31 | −3
4 | 7.54 | < 5.00 |  |  | COc1cc(-c2nc3n(n2)CCC[C@H]3c2ccc(F)cc2C)ccc1-n1cnc(C)c1.Cl [Compound 315] | 49 | 10
5 | 7.54 | < 5.00 |  |  | COc1nc(-c2nc3n(n2)CCC[C@H]3c2ccccc2C(F)(F)F)ccc1-n1cnc(C)c1 [Compound 263] | 62 | 12
6 | 7.38 | < 5.00 |  |  | COc1cc(-c2nc(Nc3cccc(F)c3C)n(C)n2)ccc1-n1cnc(C)c1 [Compound 304] | 48 | 11
7 | 8.05 | < 5.00 |  |  | COc1cc(-c2nc(Nc3cc(C(F)(F)F)ccc3C(F)(F)F)n(C)n2)ccc1-n1cnc(C)c1 [Compound 144] | 38 | 9
8 | 8.10 | < 5.00 |  |  | COc1cc(-c2nc(Nc3cc(OC(C)C)ccc3F)n(C)n2)ccc1-n1cnc(C)c1 [Compound 307] | 19 | −2
9 | 7.46 | 5.07 |  |  | COc1cc(-c2nc(Nc3ccccc3OC(F)(F)F)n(C)n2)ccc1-n1cnc(C)c1.Cl.Cl [Compound 182] | 55 | 14
10 | 7.11 | < 5.00 |  |  | COc1cc(-c2nc(Nc3cccc(C)c3F)n(C)n2)ccc1-n1cnc(C)c1 [Compound 161] | 45 | 8
11 | 7.60 | < 5.00 |  |  | COc1cc(-c2nc(Nc3c(F)ccc(C(F)(F)F)c3F)n(C)n2)ccc1-n1cnc(C)c1 [Compound 211] | 32 | −1
12 | 7.38 |  |  |  | COc1nc(-c2nc3n(n2)CCC[C@H]3c2ccc(F)cc2C)ccc1-n1cnc(C)c1 [Compound 361] | 32 | −8
13 | 6.59 | < 5.00 |  |  | COc1cc(-c2nc(N3CCCc4ccccc43)n(C)n2)ccc1-n1cnc(C)c1 [Compound 349] |  | 
14 | 7.25 | < 5.00 |  |  | COc1cc(-c2nc(Nc3ccccc3Br)n(C)n2)ccc1-n1cnc(C)c1 [Compound 102] |  | 
15 | 6.24 | < 5.00 |  |  | COc1cccc(-c2nc(-c3ccc(-n4cnc(C)c4)c(OC)c3)nn2C)c1 [Compound 36] |  | 
16 | 5.30 | < 5.00 |  |  | COc1cc(-c2nc(-c3ccccc3Cl)nn2C)ccc1-n1cnc(C)c1 [Compound 23] |  | 
17 | 8.15 | 6.84 |  |  | CCOc1cc(C)c(Nc2nc(-c3ccc(-n4cnc(C)c4)c(OC)c3)nn2C)cc1C(C)C [Compound 328] |  | 
18 | 6.91 | < 5.00 |  |  | COc1cc(-c2nc3n(n2)CCCC3c2c(F)cc(F)cc2F)ccc1-n1cnc(C)c1 (stereo not shown) [Compound 312] |  | 
19 | 6.87 | < 5.00 |  |  | COc1ccc(Nc2nc(-c3ccc(-n4cnc(C)c4)c(OC)c3)nn2C)c(F)c1 [Compound 197] |  | 
20 | 6.47 | < 5.00 |  |  | COc1cc(-c2nc(NC3CCCC(C(F)(F)F)C3)n(C)n2)ccc1-n1cnc(C)c1 (stereo not shown) [Compound 96] |  | 

Row | pIC50 [1] | pIC50 [4] | pIC50 ([1]; Homo sapiens) | pIC50 ([4]; Homo sapiens) | Compound | Aβ42 (% Ctrl) _Mean [2] [% Ctrl] | Aβtotal (% Ctrl) _Mean [3] [% Ctrl]
21 | 7.10 | < 5.00 |  |  | COc1nc(-c2nc3n(n2)CCOC3c2ccccc2OC(F)(F)F)ccc1-n1cnc(C)c1 (stereo not shown) [Compound 348] |  | 
22 | 7.38 | < 4.82 |  |  | COc1nc(-c2nc(Nc3ccc(F)c(C(F)(F)F)c3)n(C)n2)ccc1-n1cnc(C)c1 [Compound 171] |  | 
23 | 6.70 | < 5.00 |  |  | COc1cc(-c2nc(Nc3c(F)cccc3F)n(C)n2)ccc1-n1cnc(C)c1 [Compound 116] |  | 
24 | 6.84 | 5.08 |  |  | COc1cc(-c2nc(N3CCC(c4ccccc4)CC3)n(C)n2)ccc1-n1cnc(C)c1 [Compound 77] |  | 
25 | 6.10 | < 5.00 |  |  | COc1cc(-c2nc(Nc3ncccc3C(F)(F)F)n(C)n2)ccc1-n1cnc(C)c1 [Compound 240] |  | 
26 | 7.77 | < 5.00 |  |  | COc1cc(-c2nc(Nc3cc(C(F)(F)F)c(Cl)cc3F)n(C)n2)ccc1-n1cnc(C)c1 [Compound 212] |  | 
27 | 6.86 | < 5.00 |  |  | COc1cc(-c2nc3n(n2)CCOC3c2cc(OC(F)(F)F)ccc2F)ccc1-n1cnc(C)c1 (stereo not shown) [Compound 165] |  | 
28 | 6.73 | 5.13 |  |  | COc1cc(-c2nc(CNc3cccc(C(F)(F)F)c3)n(C)n2)ccc1-n1cnc(C)c1 [Compound 311] |  | 
29 |  |  | 7.02 | < 5.00 | COc1cc(-c2nc(Nc3cc(C(F)(F)F)ccc3F)n(C)n2)ccc1-n1ccnc1 [Compound 359] |  | 
30 | 5.93 | < 5.00 |  |  | COc1cc(-c2nc(N3CCCOc4ccccc43)n(C)n2)ccc1-n1cnc(C)c1 [Compound 327] |  | 
31 | 6.86 | 5.07 |  |  | COc1cc(-c2nc(Cc3ccc(F)cc3C(F)(F)F)n(C)n2)ccc1-n1cnc(C)c1 [Compound 46] |  | 
32 | 6.54 | < 5.00 |  |  | COc1cc(-c2nc3n(n2)CCC[C@@H]3c2ccc(F)cc2C)ccc1-n1cnc(C)c1 [Compound 314] |  | 
33 | 7.11 | 5.10 |  |  | COc1cc(-c2nc3n(n2)CCCCC3c2ccccc2C(F)(F)F)ccc1-n1cnc(C)c1 (stereo not shown) [Compound 283] |  | 
34 | 6.68 | < 5.00 |  |  | COc1cc(-c2nc(-c3cc(Cl)ccc3C)n(C)n2)ccc1-n1cnc(C)c1 [Compound 88] |  | 
35 | 6.72 | < 5.00 |  |  | COc1cc(-c2nc3n(n2)CCOC3c2ccc(F)cc2C)ccc1-n1cnc(C)c1 (stereo not shown) [Compound 280] |  | 
36 | 6.31 | < 5.00 |  |  | Cc1cn(-c2ccc(-c3nc(Nc4cc(C(F)(F)F)ccc4F)n(C)n3)nc2C)cn1 [Compound 319] |  | 
37 | 5.24 | < 5.00 |  |  | COc1cc(-c2nc(-c3ccc(F)cc3)nn2C)ccc1-n1cnc(C)c1 [Compound 52] |  | 
38 | 6.57 | 5.01 |  |  | COc1cc(-c2nc(Oc3cccc(C(F)(F)F)c3)n(C)n2)ccc1-n1cnc(C)c1 [Compound 246] |  | 
39 | 6.79 | < 5.00 |  |  | COc1cc(-c2nc(Nc3ccc(Cl)cc3F)n(C)n2)ccc1-n1cnc(C)c1 [Compound 126] |  | 
40 |  |  | 6.19 | < 5.00 | COc1cc(-c2nc(Sc3cccc(C(F)(F)F)c3)n(C)n2)ccc1-n1cnc(C)c1 [Compound 249] |  | 
